Experimental data from ChEMBL document CHEMBL3045168, “Thiamethoxam acts as a target-site synergist of spinosad in resistant strains of Frankliniella occidentalis” (2013).
In brackets after ≈: the same amount, converted by molar mass.

Experiments:
[1] = tested on: Frankliniella occidentalis; assay: Resistance factor, LC50 for Frankliniella occidentalis R1S (western flower thrips) to LC50 for Frankliniella occidentalis TFR; type: functional
[2] = tested on: Frankliniella occidentalis; assay: Insecticidal activity against Frankliniella occidentalis PPP (western flower thrips) in compound treated sweet pepper leaf assessed as mortality at 25 +/- 2 degC by leaf dip method; type: functional; details: in Capsicum annuum, foliar
[3] = tested on: Frankliniella occidentalis; assay: Insecticidal activity against Frankliniella occidentalis R1S (western flower thrips) in compound treated sweet pepper leaf assessed as mortality at 25 +/- 2 degC by leaf dip method; type: functional; details: in Capsicum annuum, foliar
[4] = tested on: Frankliniella occidentalis; assay: Resistance factor, LC50 for Frankliniella occidentalis PPP (western flower thrips) to LC50 for Frankliniella occidentalis TFR; type: functional
[5] = tested on: Frankliniella occidentalis; assay: Insecticidal activity against Frankliniella occidentalis TFB (western flower thrips) in compound treated sweet pepper leaf assessed as mortality at 25 +/- 2 degC by leaf dip method; type: functional; details: in Capsicum annuum, foliar
[6] = tested on: Frankliniella occidentalis; assay: Insecticidal activity against Frankliniella occidentalis TFA (western flower thrips) in compound treated sweet pepper leaf assessed as mortality at 150 mg/l at 25 +/- 2 degC by leaf dip method; type: functional; details: in Capsicum annuum, foliar
[7] = tested on: Frankliniella occidentalis; assay: Insecticidal activity against Frankliniella occidentalis TFB (western flower thrips) in compound treated sweet pepper leaf assessed as mortality at 150 mg/l at 25 +/- 2 degC by leaf dip method; type: functional; details: in Capsicum annuum, foliar
[8] = tested on: Frankliniella occidentalis; assay: Insecticidal activity against Frankliniella occidentalis SPI5 (western flower thrips) in compound treated sweet pepper leaf assessed as mortality at 150 mg/l at 25 +/- 2 degC by leaf dip method; type: functional; details: SPI5, in Capsicum annuum, foliar
[9] = tested on: Frankliniella occidentalis; assay: Insecticidal activity against Frankliniella occidentalis R1 (western flower thrips) in compound treated sweet pepper leaf assessed as mortality at 150 mg/l at 25 +/- 2 degC by leaf dip method; type: functional; details: R1, in Capsicum annuum, foliar
[10] = tested on: Frankliniella occidentalis; assay: Insecticidal activity against Frankliniella occidentalis R1S (western flower thrips) in compound treated sweet pepper leaf assessed as mortality at 1000 mg/l at 25 +/- 2 degC by leaf dip method; details: in Capsicum annuum, foliar
[11] = tested on: Frankliniella occidentalis; assay: Insecticidal activity against Frankliniella occidentalis TFB (western flower thrips) in compound treated sweet pepper leaf assessed as mortality at 216 mg/l at 25 +/- 2 degC by leaf dip method; type: functional; details: in Capsicum annuum, foliar
[12] = tested on: Frankliniella occidentalis; assay: Insecticidal activity against Frankliniella occidentalis R1 (western flower thrips) in compound treated sweet pepper leaf assessed as mortality at 216 mg/l at 25 +/- 2 degC by leaf dip method; type: functional; details: R1, in Capsicum annuum, foliar
[13] = tested on: Frankliniella occidentalis; assay: Insecticidal activity against Frankliniella occidentalis SPI5 (western flower thrips) in compound treated sweet pepper leaf assessed as mortality at 216 mg/l at 25 +/- 2 degC by leaf dip method; type: functional; details: SPI5, in Capsicum annuum, foliar
[14] = tested on: Frankliniella occidentalis; assay: Insecticidal activity against Frankliniella occidentalis TFA (western flower thrips) in compound treated sweet pepper leaf assessed as mortality at 216 mg/l at 25 +/- 2 degC by leaf dip method; type: functional; details: in Capsicum annuum, foliar
[15] = tested on: Frankliniella occidentalis; assay: Insecticidal activity against Frankliniella occidentalis SPI5 (western flower thrips) in compound treated sweet pepper leaf assessed as mortality at 50 mg/l at 25 +/- 2 degC by leaf dip method; type: functional; details: SPI5, in Capsicum annuum, foliar
[16] = tested on: Frankliniella occidentalis; assay: Resistance factor, LC50 for Frankliniella occidentalis R1S (western flower thrips) to LC50 for Frankliniella occidentalis TF; type: functional
[17] = tested on: Frankliniella occidentalis; assay: Insecticidal activity against Frankliniella occidentalis R1S (western flower thrips) in compound treated sweet pepper leaf assessed as mortality at 50 mg/l at 25 +/- 2 degC by leaf dip method; type: functional; details: in Capsicum annuum, foliar
[18] = tested on: Frankliniella occidentalis; assay: Insecticidal activity against Frankliniella occidentalis TFB (western flower thrips) in compound treated sweet pepper leaf assessed as mortality at 50 mg/l at 25 +/- 2 degC by leaf dip method; type: functional; details: in Capsicum annuum, foliar
[19] = tested on: Frankliniella occidentalis; assay: Resistance factor, LC50 for Frankliniella occidentalis MOJO (western flower thrips) to LC50 for Frankliniella occidentalis TF; type: functional
[20] = tested on: Frankliniella occidentalis; assay: Insecticidal activity against Frankliniella occidentalis MOJO (western flower thrips) in compound treated sweet pepper leaf assessed as mortality at 25 +/- 2 degC by leaf dip method; type: functional; details: in Capsicum annuum, foliar
[21] = tested on: Frankliniella occidentalis; assay: Insecticidal activity against Frankliniella occidentalis TF (western flower thrips) in compound treated sweet pepper leaf assessed as mortality at 25 +/- 2 degC by leaf dip method; type: functional; details: in Capsicum annuum, foliar
[22] = tested on: Frankliniella occidentalis; assay: Insecticidal activity against Frankliniella occidentalis TFA (western flower thrips) in compound treated sweet pepper leaf assessed as mortality at 50 mg/l at 25 +/- 2 degC by leaf dip method; type: functional; details: in Capsicum annuum, foliar
[23] = tested on: Frankliniella occidentalis; assay: Insecticidal activity against Frankliniella occidentalis R1 (western flower thrips) in compound treated sweet pepper leaf assessed as mortality at 50 mg/l at 25 +/- 2 degC by leaf dip method; type: functional; details: R1, in Capsicum annuum, foliar

## C/C(=N\C#N)N(C)Cc1ccc(Cl)nc1 [ACETAMIPRID]
[1]
  RatioLC50: 0.2
[2]
  LC50: 116 µg/mL (≈ 521 µM)
[3]
  LC50: 119 µg/mL (≈ 534 µM)
[4]
  RatioLC50: 0.2
[5]
  LC50: 663 µg/mL (≈ 2980 µM)

## O=[N+]([O-])/N=C1\NCCN1Cc1ccc(Cl)nc1 [IMIDACLOPRID]
[6]
  mortality at 150 µg/mL: 6.7%
[7]
  mortality at 150 µg/mL: 3.3%
[8]
  mortality at 150 µg/mL: 0%
[9]
  mortality at 150 µg/mL: 10%

## CCCCOCCOCCOCc1cc2c(cc1CCC)OCO2 [PIPERONYL BUTOXIDE]
[10]
  mortality at 1000 µg/mL: 10%

## N#C/N=C1\SCCN1Cc1ccc(Cl)nc1 [THIACLOPRID]
[11]
  mortality at 216 µg/mL: 10%
[12]
  mortality at 216 µg/mL: 0%
[13]
  mortality at 216 µg/mL: 3.3%
[14]
  mortality at 216 µg/mL: 3.3%

## CN1COCN(Cc2cnc(Cl)s2)/C1=N\[N+](=O)[O-] [THIAMETHOXAM]
[15]
  mortality at 50 µg/mL: 13.3%
[1]
  RatioLC50: 0.8
[16]
  RatioLC50: 3
[2]
  LC50: 1670 µg/mL (≈ 5740 µM)
[17]
  mortality at 50 µg/mL: 0%
[18]
  mortality at 50 µg/mL: 20%
[3]
  LC50: 298 µg/mL (≈ 1020 µM)
[4]
  RatioLC50: 4.8
[19]
  RatioLC50: 1
[20]
  LC50: 209 µg/mL (≈ 717 µM)
[21]
  LC50: 158 µg/mL (≈ 541 µM)
[22]
  mortality at 50 µg/mL: 10%
[5]
  LC50: 352 µg/mL (≈ 1210 µM)
[23]
  mortality at 50 µg/mL: 16.7%
